This is an account of results in US20250197425A1, “2,6,9-TRISUBSTITUTED PURINES” (ASTRAZENECA AB, priority 2022, published 2025).

For data set [1], the system named is NPM phosphorylation (Thr199, CDK2-cyclin E complex). The data set is described as follows: NPM phosphorylation imaging assay in MCF-7 cells. Format: cell-based. As to conditions: Homo sapiens, MCF7, 2 h, 4N DNA cells. The essentials:
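MCF-7 cells were fixed, permeabilised and immunostained, then imaged for phospho-NPM (Thr199), a CDK2-cyclin E site. Analysis was gated on 4N-DNA cells by Hoechst staining. Signals were normalised to controls and fitted for IC50.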

Data set [2] concerns POLR2A Ser2 phosphorylation (CDK9). The data set is described as follows: POLR2A Ser2 phosphorylation imaging assay in MCF-7 cells. Format: cell-based. Particulars: Homo sapiens, MCF7, 2 h, read-out: POLR2A Ser2 phosphorylation IC50. The essentials: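 MCF-7 cells were fixed, permeabilised and immunostained for POLR2A phospho-Ser2, then imaged by high-content microscopy. Levels were normalised to controls and IC50 values derived.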

Data set [3] concerns OVCAR3 cells. The data set can be described thus: Cellular proliferation EdU assay, OVCAR3. The format is cell-based, human. As to conditions: Homo sapiens, OVCAR-3, 48 h, EdU assay, two days; read-out: OVCAR3 IC50. The essentials: (§1)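 MCF-7 (800 cells/well) and OVCAR3 (1200 cells/well) in RPMI with 10% FBS exposed to compounds for two days at 37 °C.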
For data set [4], the target named is CDK4:CCND1 (Homo sapiens (Human), UniProt P11802). The data set is described as follows: NanoBRET assay in MCF-7 cells, CDK4. The format is cell-based. Particulars: NanoBRET, transfected MCF-7 cells, 2 hours; n = 1 or average; read-out: CDK4 IC50. In outline: (§2)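 Transiently transfected MCF-7 cells expressing CDK1:CCNB1 or CDK4:CCND1 were treated with compound plus tracer (CDK1: Tracer K-9, 400 μM stock; CDK4: Tracer K-7, 100 μM stock) for 2 h at 37 °C.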
On the technique in general: BRET reads energy transfer from a luciferase to a nearby fluorophore.

Data set [5] concerns OVCAR3 cells. The data set can be described thus: Cell proliferation CyQUANT assay, OVCAR3. The format is cell-based. As to conditions: Homo sapiens, OVCAR-3, 168 h; CyQUANT cell counts, 7 days. On the procedure: (§3) An imaging-based assay was used to investigate changes in cell number in OVCAR3 cells (CCNE1-amplified ovarian cancer cell line) and SKOV3 cells (non-amplified ovarian cancer cell line) treated with test compounds.
(§4) Cells were plated in 384 well plates (Perkin-Elmer 6057300) in RPMI-1640/10% FBS/1× L-Glu at 500 cells per well in 30 μL and incubated with test compound at 37° C. and 5% CO2 for 7 days. Cells were then stained using the CyQuant Direct Cell Proliferation Assay Kit (Thermo Cat #C7026) in accordance with the kit protocol. The stained cells were imaged using an Operetta high content imager to generate cell counts and IC50 values were calculated relative to DMSO controls.

For data set [6], the system named is SKOV3 cells. The data set can be described thus: Cell proliferation CyQUANT assay, SKOV3. The format is cell-based. As to conditions: Homo sapiens, SK-OV-3, 168 h; CyQUANT cell counts, 7 days. Here is the method:
as §3, §4

Data set [7] concerns the target CDK1:CCNB1 (Homo sapiens (Human), UniProt P06493). The data set can be described thus: NanoBRET assay in MCF-7 cells, CDK1. The format is cell-based. Particulars: NanoBRET, transfected MCF-7 cells, 2 hours; n = 1 or average; read-out: CDK1 IC50. The essentials:
as §2

Data set [8] concerns the target CDK2:CCNE1 (Homo sapiens (Human), UniProt P24941). The data set can be described thus: NanoBRET assay in MCF-7 cells, CDK2. Format: cell-based. As to conditions: transfected MCF-7 cells, 2 hours, n = 1 or average. In outline:
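In live MCF-7 cells, compound added followed by NanoBRET TE Tracer K-9 (stock 200 μM) for CDK2, 2 h at 37° C, 5% CO2.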

Data set [9] concerns MCF-7 cells. The data set is described as follows: Cellular proliferation EdU assay, MCF-7. The format is cell-based. Particulars: Homo sapiens, MCF7, 48 h, EdU assay, two days; read-out: MCF-7 IC50. The essentials:
as §1

Data set [10] concerns the target 379 non-CDK kinase (or non-CDK kinase-complex) targets. The data set is described as follows: Kinase profiling (SelectScreen, ThermoFisher). As to conditions: compared with Compound 6. The format is biochemical. The source says:
Test compounds were profiled against a broad panel of kinases at ThermoFisher Scientific using the SelectScreen Kinase Profiling Services. Each kinase assay used one of the following assay technology protocols: • 1) Z-LYTE™ Screening Protocol and Assay Conditions (Revised 23 Jan. 2018 version) available at http://assets.thermofisher.com/TFS-Assets/BID/Methods-&-Protocols/20180123_SSBK_Customer_Protocol_and_Assay_Conditions.pdf; • 2) Adapta™ Screening Protocol and Assay Conditions (Revised 23 Jan. 2018 version) available at http://assets.thermofisher.com/TFS-Assets/BID/Methods-&-Protocols/20180123_SSBK_Adapta_Customer_Protocol_and_Assay_Conditions.pdf; or • 3) LanthaScreen™ Eu Kinase Binding Assay Screening Protocol and Assay Conditions (Revised 23 Jan. 2018 version) available at http://assets.thermofisher.com/TFS-Assets/BID/Methods-&-Protocols/20180123_SSBK_LanthaScreen_Binding_Customer_Protocol_and_Assay_Co nditions.pdf.

Data set [11] concerns OVCAR3 cells. The data set can be described thus: Effect on cell cycle in OVCAR3 cell line (flow cytometry). The format is cell-based, human. As to conditions: 20 to 24 hours, 0.03, 0.1, 0.3, 1, and 3 μM. Here is the method:
Compounds were tested in the CCNE1-amplified ovarian cell line OVCAR3 to assess their effect on cell cycle phases G1 and S and potential off-target effects on cell cycle phases G2 and M.
OVCAR3 cells were seeded at 60,000 cells per well in 24 well plates, 4 wells per sample, in RPMI with 10% Fetal bovine serum. Test compounds were diluted in 96 well plates in dimethyl sulfoxide (DMSO) and then added to the wells containing the cells. The 24 well plates were placed in an incubator maintained at 37° C. and 5% CO2 and incubated for 20 to 24 hours. The next day an EdU assay was performed following the manufacturer's protocol (Thermo Fisher, C10425 EdU Alexa Fluor 488). Antibody staining was carried out using PE Mouse Anti-Cleaved PARP (BD Biosciences Catalog No. 552933) and 4′,6-diamidino-2-phenylindole (DAPI). Cells were then analyzed by flow cytometry.

For data set [12], the system named is OVCAR3 human ovarian cancer xenograft. The data set can be described thus: Anti-tumor effect in CCNE1 amplified ovarian xenograft model OVCAR3. Format: in vivo, mice. On the procedure: 15 Million OVCAR3 human ovarian cells were implanted subcutaneously in the right flank of female CB17 SCID mice. Mice were randomized into groups of 8 when average tumor volume reached approximately 160 mm^3. […] Palbociclib was dosed orally once daily.

Data set [13] has as its system 97 targets (GPCRs, ion channels, transporters, enzymes, kinases). The data set is described as follows: Secondary pharmacology panel (Eurofins CEREP). Particulars: compared with Compound 6.
Method: Secondary pharmacology assays were performed at Eurofins CEREP using standard experimental techniques. Specifically, radioligand binding assays were used to assess the ability of test compounds to interact with G-protein coupled receptors (GPCRs), ion channels, and transmembrane transporters. Assays measuring substrate turnover or phosphorylation by isolated proteins were used for enzyme and kinase targets, allowing direct determination of the mode of action of the tested compounds.
Data set [14] in a line: Aqueous thermodynamic solubility, shake-flask. The format is physicochemical. As to conditions: aqueous phosphate buffer, 25 °C, pH 7.4, aqueous buffer, thermodynamic from solid, phosphate buffer 0.1 M, pH 7.4, 24 hours. The essentials:
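Dried compound (after DMSO evaporation) was equilibrated in 0.1 M phosphate buffer pH 7.4 with stirring for 24 h at 25° C. Undissolved material was removed by double centrifugation, and the supernatant was diluted in water and quantified by UPLC/MS/MS.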

The test system of data set [15] is OVCAR3 cells. The data set can be described thus: Senescence β-galactosidase assay, OVCAR3. As to conditions: 5 days, single agent. Format: cell-based, human. On the procedure: Cells were then stained with a fluorescent dye to detect senescence-associated β-galactosidase (CellEvent Senescence Green detection kit, Thermo #C10850), diluted 1:1000 in the provided buffer, and incubated at 37° C. for 2 hours without CO2 in accordance with the manufacturer's instructions. DNA staining was performed using Hoechst 33342, diluted 1:2500 in PBS, for 15 minutes at room temperature, followed by two washes with PBS. Sample imaging was performed on a PerkinElmer Operetta CLS at lOX magnification to detect Hoechst 33342 (nuclei) and Alexa488 (senescence stain). Image analysis was performed in Harmony 4.1 software (PerkinElmer) to identify cells based on nuclear staining. Mean Alexa488 fluorescence intensity was measured within each cell, and the average was taken across all cells observed within each well. […] Data fitting was performed using Genedata Screener (Genedata AG) and combination effect was assessed using the highest single agent (HSA) model.

Data set [16] concerns CTG-3298 human CDK4/6 resistant ER+ breast cancer xenograft. The data set can be described thus: Anti-tumor effect in CTG-3298 CDK4/6 resistant ER+ breast cancer xenograft model. The format is in vivo, mice. Particulars: Palbociclib at 50 mg/kg orally once daily, 28 days. Here is the method:
CTG-3298 ER+ breast xenograft tumors were harvested from donor mice and cut into fragments approximately 50 mm^3 in volume and then reimplanted adjacent to the #3 mammary fat pad.
CTG-3298 ER+ Breast PDX fragments were implanted orthotopically adjacent to the #3 mammary fat pad using a 10-gauge trocar in female NSG mice. […] Palbociclib was dosed orally once daily.

Data set [17] concerns CTG-3283 human CDK4/6 resistant ER+ breast cancer xenograft. The data set can be described thus: Anti-tumor effect in CTG-3283 CDK4/6 resistant ER+ breast cancer xenograft model. The format is in vivo, mice. As to conditions: Palbociclib at 50 mg/kg orally once daily, 28 days. Here is the method:
CTG-3283 ER+ breast xenograft tumors were harvested from donor mice and cut into fragments approximately 50 mm^3 in volume and then reimplanted adjacent to the #3 mammary fat pad.
CTG-3283 ER+ Breast PDX fragments were implanted orthotopically adjacent to the #3 mammary fat pad using a 10-gauge trocar in female NSG mice. […] Palbociclib was dosed orally once daily.

Like-named read-outs stand apart in the source and are kept apart here. Bounds are passed on as bounds.

Sequence of CDK4:CCND1 (P11802 whole entry): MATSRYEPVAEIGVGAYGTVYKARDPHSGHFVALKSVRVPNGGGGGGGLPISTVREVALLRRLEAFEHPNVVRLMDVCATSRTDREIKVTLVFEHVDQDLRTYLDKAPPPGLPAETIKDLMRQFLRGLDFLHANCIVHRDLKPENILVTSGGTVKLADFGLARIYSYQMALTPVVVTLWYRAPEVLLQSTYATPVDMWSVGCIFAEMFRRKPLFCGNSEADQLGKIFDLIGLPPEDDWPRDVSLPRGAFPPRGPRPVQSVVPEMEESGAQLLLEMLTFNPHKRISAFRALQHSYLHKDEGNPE
Sequence of CDK4:CCND1 (P24385 whole entry partner): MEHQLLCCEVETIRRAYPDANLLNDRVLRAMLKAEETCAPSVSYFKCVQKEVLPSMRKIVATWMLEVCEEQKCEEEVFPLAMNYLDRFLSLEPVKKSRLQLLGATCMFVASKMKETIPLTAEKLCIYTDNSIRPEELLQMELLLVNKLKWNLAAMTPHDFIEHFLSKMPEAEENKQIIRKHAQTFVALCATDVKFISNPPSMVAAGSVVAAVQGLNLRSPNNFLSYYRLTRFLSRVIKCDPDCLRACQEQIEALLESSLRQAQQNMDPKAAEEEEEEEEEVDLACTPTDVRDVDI
Sequence of CDK1:CCNB1 (P06493 whole entry): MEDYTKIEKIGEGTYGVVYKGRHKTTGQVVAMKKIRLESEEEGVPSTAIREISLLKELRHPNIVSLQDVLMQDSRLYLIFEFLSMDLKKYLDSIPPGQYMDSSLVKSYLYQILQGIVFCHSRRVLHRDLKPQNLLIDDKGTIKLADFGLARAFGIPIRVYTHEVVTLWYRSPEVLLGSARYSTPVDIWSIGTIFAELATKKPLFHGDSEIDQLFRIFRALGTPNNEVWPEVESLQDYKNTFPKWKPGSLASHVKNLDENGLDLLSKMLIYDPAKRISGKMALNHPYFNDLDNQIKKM
Sequence of CDK1:CCNB1 (P14635 whole entry partner): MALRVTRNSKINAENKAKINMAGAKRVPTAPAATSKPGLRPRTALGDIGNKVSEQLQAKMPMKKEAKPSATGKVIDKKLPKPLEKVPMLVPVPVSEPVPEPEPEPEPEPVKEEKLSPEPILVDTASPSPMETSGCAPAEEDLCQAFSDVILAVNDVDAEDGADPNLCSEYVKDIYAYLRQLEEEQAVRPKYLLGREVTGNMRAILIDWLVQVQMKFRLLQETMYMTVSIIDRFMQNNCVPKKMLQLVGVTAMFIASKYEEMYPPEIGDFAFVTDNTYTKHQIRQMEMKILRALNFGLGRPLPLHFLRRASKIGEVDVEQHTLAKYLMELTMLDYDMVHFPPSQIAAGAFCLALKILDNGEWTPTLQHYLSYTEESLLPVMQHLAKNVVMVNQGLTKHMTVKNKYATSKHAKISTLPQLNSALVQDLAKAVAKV

What is called IC50 is the point on the concentration scale where inhibition reaches its midpoint. Consider `O=S(=O)(c1ncc[nH]1)N1C[C@@H](F)[C@H](Nc2nc(N[C@@H](CO)C3CC3)nc3c2ncn3C(F)F)C1` (relative stereo) [Example 61, (R)-2-((6-(((3R*,4R*)-1-((1H-imidazol-2-yl)sulfonyl)-4-fluoropyrrolidin-3-yl)amino)-9-(difluoromethyl)-9H-purin-2-yl)amino)-2-cyclopropylethan-1-ol], for which the IC50 turned out to be 17 nM in [1]; 1700 nM in [2] (MCF-7 cells, 2 hours); 53 nM in [3]; 800 nM in [4]; 34 nM in data set [5]; 514 nM in [6]. For the same compound, the values for the IC50 in data set [7] and in [8] were 115 nM and 5 nM, respectively.
On to `CC(C)[C@H](CO)Nc1nc(N[C@H]2CCN(S(C)(=O)=O)C2)c2ncn(C(C)C)c2n1` [Compound 20, (R)-2-((9-isopropyl-6-(((S)-1-(methylsulfonyl)pyrrolidin-3-yl)amino)-9H-purin-2-yl)amino)-3-methylbutan-1-ol], for which the concentration for half-maximal inhibition (IC50) was > 30000 nM in [2]; 224 nM in [3]; 665 nM in data set [9]; 188 nM in [5]; 2520 nM in data set [6]. Besides, in data set [10], the kinase inhibition profile result is reported as “broadly similar kinase inhibition profiles to Compound 6”. Also, the “effect on cell cycle phase” value in data set [11] is “increased the population of cells in the G0 and G1 phases”. Moreover, the “activity and tolerability in xenograft model” value in data set [12] (OVCAR3 xenograft) was “active and well tolerated”.
Take `CC[C@H](Nc1nc(N[C@H]2CCN(S(=O)(=O)NC)C2)c2ncn(CC)c2n1)[C@@H](C)O` [Example 44, (S)-3-((9-ethyl-2-(((2R,3S)-2-hydroxypentan-3-yl)amino)-9H-purin-6-yl)-amino)-N-methylpyrrolidine-1-sulfonamide]: the IC50 in [2] (MCF-7 cells, 2 hours) was > 29100 nM; in data set [3] it was 242 nM; in data set [9], 592 nM; in [5], 133 nM; in data set [6], 9150 nM. The kinase inhibition profile entry in data set [10] was “broadly similar kinase inhibition profiles to Compound 6”.
For orientation: solubility means the concentration that dissolves in the medium under given conditions. The low end stands for a poorly soluble substance, the high end for a readily soluble substance. As for `CC[C@H](Nc1nc(N[C@H]2CCN(S(=O)(=O)c3ccn[nH]3)C2)c2ncn(CC)c2n1)[C@@H](C)O` [Example 62, (2R,3S)-3-((6-(((S)-1-((1H-pyrazol-5-yl)sulfonyl)pyrrolidin-3-yl)amino)-9-ethyl-9H-purin-2-yl)amino)pentan-2-ol], the IC50 in data set [2] (MCF-7 cells, 2 hours) is > 30000 nM; in data set [3], 441 nM; in [9] it was 1400 nM. Further, the kinase inhibition profile result in data set [10] was “broadly similar kinase inhibition profiles to Compound 6”. Besides, in [13], the secondary pharmacology profile entry was “broadly similar secondary pharmacology to Compound 6”. Moreover, the solubility at 24 h in data set [14] was > 1000 µM.
On to `CC(=O)c1c(C)c2cnc(Nc3ccc(N4CCNCC4)cn3)nc2n(C2CCCC2)c1=O` [Palbociclib, reference compound], for which, in data set [15], the induction of senescence entry is recorded as “no effect was observed”. In addition, the “% INHIBITION (end of dosing)” value in [16] was determined as 49%; in data set [17], 46%. For the same compound, the “% INHIBITION” value in data set [12] (Palbociclib at 50 mg/kg orally once daily, 28 days) was determined as 9%.
